Source: patent US12318381B2, “Treatment for non-alcoholic fatty liver disease” (1GLOBE BIOMEDICAL CO., LTD., priority 2018, dated 2025)

System: human HepG2 liver cells
Assay: Intracellular fat content in palmitoleic acid-treated HepG2 cells (AdipoRed/Hoechst 33258 double staining, fluorometry)
Type: cell-based
Conditions: for palmitoleic acid-induced increase of intracellular triglyceride content: HepG2, 0.8 mM palmitoleic acid in EMEM; for inhibitory effect on fat accumulation as compared to Compound 13-3: HepG2, 0.8 mM palmitoleic acid
Description: The effects on triglyceride accumulation from Compound 13-3-1, Compound 13-3-2, Compound 13-3-3, Compound 13-3-5, Compound 13-3-6, Compound 13-3-7, Compound 18-2, Compound 13-3-10 and Compound 13-3-11, as exemplary compounds of the invention, were tested. Human HepG2 liver cells were incubated with 0.8 mM palmitoleic acid in EMEM medium for 24 hours in the presence of 0.1 μM compounds of the invention or control vehicle, DMSO. Subsequently, the cells were washed with PBS and the intracellular fat content was measured by AdipoRed/Hoechst 33258 double staining, which was assessed by flourometry.
And the effects of Compound 001, Compound 004, Compound 006, Compound 013, Compound 132, Compound 133 and Compound 134, as further exemplary compounds of the invention, were also tested. Human HepG2 liver cells were incubated with 0.8 mM palmitoleic acid in EMEM medium for 48 hours in the presence of 0.1 μM compounds of the invention or control vehicle, DMSO. Subsequently, the cells were washed with PBS and the intracellular fat content was measured by AdipoRed/Hoechst 33258 double staining, which was assessed by flourometry.

[1] = 48 hours, 0.1 μM compound vs DMSO (FIG. 1C)
[2] = 24 hours, 0.1 μM compound vs DMSO (FIG. 1B)

Structure (SMILES)	palmitoleic acid-induced increase of intracellular triglyceride content [1]	inhibitory effect on fat accumulation as compared to Compound 13-3 (48 hours, 0.1 μM (FIG. 1C))	palmitoleic acid-induced increase of intracellular triglyceride content [2]	inhibitory effect on fat accumulation as compared to Compound 13-3 (24 hours, 0.1 μM (FIG. 1B))
[2H]C([2H])(NC(=O)c1c(C)[nH]c(/C=C2\C(=O)Nc3ccc(-c4csc(-c5ccccc5)n4)cc32)c1C)C([2H])([2H])N(CC)CC [Compound 001]	markedly suppressed	comparable or greater		
[2H]C([2H])([2H])C([2H])([2H])N(C([2H])([2H])C([2H])([2H])[2H])C([2H])([2H])C([2H])([2H])NC(=O)c1c(C)[nH]c(/C=C2\C(=O)Nc3ccc(-c4csc(-c5ccccc5)n4)cc32)c1C [Compound 004]	markedly suppressed	comparable or greater		
[2H]c1c([2H])c([2H])c(-c2nc(-c3ccc4c(c3)/C(=C/c3[nH]c(C)c(C(=O)NC([2H])([2H])C([2H])([2H])N(C([2H])([2H])C([2H])([2H])[2H])C([2H])([2H])C([2H])([2H])[2H])c3C)C(=O)N4)cs2)c([2H])c1[2H] [Compound 006]	markedly suppressed	comparable or greater		
CCN(CC)CCNC(=O)c1c(C)[nH]c(/C=C2\C(=O)Nc3ccc(-c4csc(Nc5ccccc5)n4)cc32)c1C [Compound 13-3-1]			markedly suppressed	comparable or greater
CCN(CC)CCNC(=O)c1c(C)[nH]c(/C=C2\C(=O)Nc3ccc(-c4csc(N5CCCCC5)n4)cc32)c1C [Compound 13-3-2]			markedly suppressed	comparable or greater
CCN(CC)CCNC(=O)c1c(C)[nH]c(/C=C2\C(=O)Nc3ccc(C(=O)Nc4csc([N+](=O)[O-])n4)cc32)c1C [Compound 13-3-3]			markedly suppressed	comparable or greater
CCN(CC)CCNC(=O)c1c(C)[nH]c(/C=C2\C(=O)Nc3cccc(-c4cnc(OC)nc4)c32)c1C [Compound 13-3-5]			markedly suppressed	comparable or greater
CCN(CC)CCC(=O)N1CCN(c2ccc(/C=C3\C(=O)Nc4ccc(-c5csc(-c6ccccc6)n5)cc43)cc2)CC1 [Compound 13-3-6]			markedly suppressed	comparable or greater
CCN(CC)CCNC(=O)CCc1c(C)[nH]c(/C=C2\C(=O)Nc3ccc(-c4csc(-c5ccccc5)n4)cc32)c1C [Compound 13-3-7]			markedly suppressed	comparable or greater
CCN(CC)CCNC(=O)c1c(C)[nH]c(/C=C2\C(=O)Nc3cnc(-c4csc(-c5ccccc5)n4)cc32)c1C [Compound 13-3-10]			markedly suppressed	comparable or greater
CCN(CC)CCNC(=O)c1c(C)[nH]c(/C=C2\C(=O)Nc3ccc(C4CCN(c5ccccc5)CC4)cc32)c1C [Compound 13-3-11]			markedly suppressed	comparable or greater
[2H]c1c([2H])c([2H])c(-c2nc(-c3ccc4c(c3)/C(=C/c3[nH]c(C)c(C(=O)NC([2H])([2H])C([2H])([2H])N(CC)CC)c3C)C(=O)N4)cs2)c([2H])c1[2H] [Compound 013]	markedly suppressed	comparable or greater		
Cc1[nH]c(/C=C2\C(=O)Nc3ccc(-c4csc(-c5cccnc5)n4)cc32)c(C)c1C(=O)N1CCN(C)CC1 [Compound 18-2]			markedly suppressed	comparable or greater
[2H]c1c([2H])c([2H])c(-c2nc(-c3ccc4c(c3)/C(=C/c3[nH]c(C)c(C(=O)NCCN(CC)CC)c3C)C(=O)N4)cs2)c([2H])c1[2H] [Compound 132]	markedly suppressed	comparable or greater		
[2H]c1c([2H])c([2H])c(-c2nc(-c3ccc4c(c3)/C(=C/c3[nH]c(C)c(C(=O)NCCN(C([2H])([2H])C([2H])([2H])[2H])C([2H])([2H])C([2H])([2H])[2H])c3C)C(=O)N4)cs2)c([2H])c1[2H] [Compound 133]	markedly suppressed	comparable or greater		
[2H]C([2H])([2H])C([2H])([2H])N(CCNC(=O)c1c(C)[nH]c(/C=C2\C(=O)Nc3ccc(-c4csc(-c5ccccc5)n4)cc32)c1C)C([2H])([2H])C([2H])([2H])[2H] [Compound 134]	markedly suppressed	comparable or greater		
